Laboratory results published in PubChem BioAssay (NCI).
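Method: 48-hour compound exposure of cells in 96-well plates, five concentrations, linear interpolation of endpoints. GI50 marks 50% less growth. TGI denotes the concentration required for complete inhibition of growth.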

Tests used:
Assay in all cases: growth of human tumour cells (NCI), 48 h
SW-620 colon = test system: SW-620 colon
SK-MEL-2 melanoma = test system: SK-MEL-2 melanoma
SF-268 CNS = test system: SF-268 CNS
A549 NSCLC = test system: A549 NSCLC
RXF 393 renal = test system: RXF 393 renal
SK-MEL-28 melanoma = test system: SK-MEL-28 melanoma
ACHN renal = test system: ACHN renal
RPMI-8226 leukemia = test system: RPMI-8226 leukemia
CCRF-CEM leukemia = test system: CCRF-CEM leukemia
U251 CNS = test system: U251 CNS
MDA-MB-231 breast = test system: MDA-MB-231 breast
DU-145 prostate = test system: DU-145 prostate
HCC-2998 colon = test system: HCC-2998 colon
EKVX NSCLC = test system: EKVX NSCLC
OVCAR-5 ovarian = test system: OVCAR-5 ovarian
NCI-H23 lung = test system: NCI-H23 lung
COLO 205 colon = test system: COLO 205 colon
HOP-92 NSCLC = test system: HOP-92 NSCLC
SNB-19 CNS = test system: SNB-19 CNS
NCI-H460 lung = test system: NCI-H460 lung
NCI-H522 lung = test system: NCI-H522 lung
OVCAR-3 ovarian = test system: OVCAR-3 ovarian
UACC-62 melanoma = test system: UACC-62 melanoma
KM12 colon = test system: KM12 colon
LOX IMVI melanoma = test system: LOX IMVI melanoma
MDA-MB-435 = test system: MDA-MB-435
PC-3 prostate = test system: PC-3 prostate
SF-295 CNS = test system: SF-295 CNS
HT29 colon = test system: HT29 colon
HCT-116 colon = test system: HCT-116 colon
UO-31 renal = test system: UO-31 renal
OVCAR-8 ovarian = test system: OVCAR-8 ovarian
SF-539 CNS = test system: SF-539 CNS
IGROV1 ovarian = test system: IGROV1 ovarian
MOLT-4 leukemia = test system: MOLT-4 leukemia
NCI/ADR-RES ovarian = test system: NCI/ADR-RES ovarian
A498 renal = test system: A498 renal
SN12C renal = test system: SN12C renal
TK-10 renal = test system: TK-10 renal
HCT-15 colon = test system: HCT-15 colon
NCI-H226 lung = test system: NCI-H226 lung
BT-549 breast = test system: BT-549 breast
T-47D breast = test system: T-47D breast
MALME-3M melanoma = test system: MALME-3M melanoma
M14 melanoma = test system: M14 melanoma
SK-OV-3 ovarian = test system: SK-OV-3 ovarian
786-0 renal = test system: 786-0 renal
HS 578T breast = test system: HS 578T breast
UACC-257 melanoma = test system: UACC-257 melanoma
SK-MEL-5 melanoma = test system: SK-MEL-5 melanoma
K-562 leukemia = test system: K-562 leukemia
SR leukemia = test system: SR leukemia
MCF7 breast = test system: MCF7 breast
HOP-62 NSCLC = test system: HOP-62 NSCLC
HL-60(TB) leukemia = test system: HL-60(TB) leukemia
OVCAR-4 ovarian = test system: OVCAR-4 ovarian
SNB-75 CNS = test system: SNB-75 CNS

C=CCCCC(=O)CCC(=O)OCC1O[C@@H](O[C@@H]2C(O)[C@@H](OC(C)=O)C(C)O[C@H]2O[C@H](CC=C)CCCCC)C(O)[C@@H](OC(=O)/C(C)=C/C)[C@@H]1OC(=O)/C=C/c1ccccc1 (some centres not stated)
GI50 (SW-620 colon): 0.122 µM
TGI (SW-620 colon): > 50 µM
GI50 (SK-MEL-2 melanoma): 0.609 µM
TGI (SK-MEL-2 melanoma): > 14.7 µM
GI50 (SF-268 CNS): 0.505 µM
TGI (SF-268 CNS): > 50 µM
GI50 (A549 NSCLC): 0.0345 µM
TGI (A549 NSCLC): > 50 µM
GI50 (RXF 393 renal): 0.0766 µM
TGI (RXF 393 renal): > 50 µM
GI50 (SK-MEL-28 melanoma): 0.34 µM
TGI (SK-MEL-28 melanoma): > 50 µM
GI50 (ACHN renal): 0.151 µM
TGI (ACHN renal): > 50 µM
GI50 (RPMI-8226 leukemia): 0.18 µM
TGI (RPMI-8226 leukemia): 3.26 µM
GI50 (CCRF-CEM leukemia): 0.551 µM
TGI (CCRF-CEM leukemia): > 50 µM
GI50 (U251 CNS): 0.0297 µM
TGI (U251 CNS): > 50 µM
GI50 (MDA-MB-231 breast): 0.00866 µM
TGI (MDA-MB-231 breast): 0.0309 µM
GI50 (DU-145 prostate): 0.292 µM
TGI (DU-145 prostate): > 50 µM
GI50 (HCC-2998 colon): 1.08 µM
TGI (HCC-2998 colon): > 50 µM
GI50 (EKVX NSCLC): 0.428 µM
TGI (EKVX NSCLC): > 50 µM
GI50 (OVCAR-5 ovarian): 1.44 µM
TGI (OVCAR-5 ovarian): > 50 µM
GI50 (NCI-H23 lung): 0.995 µM
TGI (NCI-H23 lung): > 50 µM
GI50 (COLO 205 colon): 0.088 µM
TGI (COLO 205 colon): 1.55 µM
GI50 (HOP-92 NSCLC): 0.0384 µM
GI50 (SNB-19 CNS): 0.518 µM
TGI (SNB-19 CNS): > 50 µM
GI50 (NCI-H460 lung): 0.0656 µM
TGI (NCI-H460 lung): > 50 µM
GI50 (NCI-H522 lung): 0.248 µM
TGI (NCI-H522 lung): > 50 µM
GI50 (OVCAR-3 ovarian): 0.29 µM
TGI (OVCAR-3 ovarian): > 50 µM
GI50 (UACC-62 melanoma): 0.19 µM
TGI (UACC-62 melanoma): 5.62 µM
GI50 (KM12 colon): 0.142 µM
TGI (KM12 colon): > 50 µM
GI50 (LOX IMVI melanoma): 0.0275 µM
TGI (LOX IMVI melanoma): 0.127 µM
GI50 (MDA-MB-435): 0.0216 µM
TGI (MDA-MB-435): > 50 µM
GI50 (PC-3 prostate): 0.198 µM
TGI (PC-3 prostate): > 50 µM
GI50 (SF-295 CNS): 0.0144 µM
TGI (SF-295 CNS): 5.51 µM
GI50 (HT29 colon): 0.0251 µM
TGI (HT29 colon): 3.06 µM
GI50 (HCT-116 colon): 0.0262 µM
TGI (HCT-116 colon): > 50 µM
GI50 (UO-31 renal): 0.033 µM
TGI (UO-31 renal): > 50 µM
GI50 (OVCAR-8 ovarian): 0.173 µM
TGI (OVCAR-8 ovarian): > 50 µM
GI50 (SF-539 CNS): 0.0546 µM
TGI (SF-539 CNS): 12.3 µM
GI50 (IGROV1 ovarian): 0.28 µM
TGI (IGROV1 ovarian): > 50 µM
GI50 (MOLT-4 leukemia): 2.09 µM
TGI (MOLT-4 leukemia): > 50 µM
GI50 (NCI/ADR-RES ovarian): 1.92 µM
TGI (NCI/ADR-RES ovarian): > 50 µM
GI50 (A498 renal): 0.612 µM
TGI (A498 renal): > 50 µM
GI50 (SN12C renal): 0.0881 µM
TGI (SN12C renal): 2.11 µM
GI50 (TK-10 renal): 0.106 µM
TGI (TK-10 renal): > 50 µM
GI50 (HCT-15 colon): 0.263 µM
TGI (HCT-15 colon): > 50 µM
GI50 (NCI-H226 lung): 0.564 µM
TGI (NCI-H226 lung): > 50 µM
GI50 (BT-549 breast): 0.345 µM
TGI (BT-549 breast): > 50 µM
GI50 (T-47D breast): 0.0273 µM
TGI (T-47D breast): 1.21 µM
GI50 (MALME-3M melanoma): 0.871 µM
TGI (MALME-3M melanoma): > 50 µM
GI50 (M14 melanoma): 0.0633 µM
GI50 (SK-OV-3 ovarian): 0.959 µM
TGI (SK-OV-3 ovarian): > 50 µM
GI50 (786-0 renal): 0.316 µM
TGI (786-0 renal): > 50 µM
GI50 (HS 578T breast): 0.131 µM
TGI (HS 578T breast): > 50 µM
GI50 (UACC-257 melanoma): 0.0791 µM
TGI (UACC-257 melanoma): 8.11 µM
GI50 (SK-MEL-5 melanoma): 0.0352 µM
TGI (SK-MEL-5 melanoma): 0.517 µM
GI50 (K-562 leukemia): 0.267 µM
TGI (K-562 leukemia): > 50 µM
GI50 (SR leukemia): 0.142 µM
TGI (SR leukemia): 1.83 µM
GI50 (MCF7 breast): 0.0316 µM
TGI (MCF7 breast): > 50 µM
GI50 (HOP-62 NSCLC): 0.235 µM
TGI (HOP-62 NSCLC): > 50 µM
GI50 (HL-60(TB) leukemia): 0.673 µM
TGI (HL-60(TB) leukemia): 3.34 µM
GI50 (OVCAR-4 ovarian): 2.29 µM
TGI (OVCAR-4 ovarian): > 50 µM
GI50 (SNB-75 CNS): 0.0133 µM
TGI (SNB-75 CNS): > 28 µM
